Measurements taken from article PMC5285354, “Cationic Net Charge and Counter Ion Type as Antimicrobial Activity Determinant Factors of Short Lipopeptides” (Frontiers in Microbiology, 2017).
Converted amounts (≈) assume the structure as drawn. Read-outs that look alike come from different tables or passages of the source. Where a SMILES comes first, the peptide text is derived from it. The star is where a group is joined. Decanoyl = CCCCCCCCCC(=O)*; Octanoyl = CCCCCCCC(=O)*

Legend:
Type in all cases: cell-based
[1] = system: Bacillus subtilis (ATCC 6633)
Method: (§1) The minimum inhibitory concentration (MIC), minimum bactericidal concentration (MBC) and minimum fungicidal concentration (MFC) were determined according to the procedure recommended by the Clinical Laboratory Standards Institute (CLSI). The following reference strains were tested: Gram-negative E. coli (ATCC 25922), K. pneumoniae (ATCC 700603), P. vulgaris (PCM 2668), P. aeruginosa (ATCC 9027), Gram-positive S. aureus (ATCC 25923), S. epidermidis (PCM 2118), B. subtilis (ATCC 6633), E. faecalis (ATCC 29212) and fungi C. albicans (ATCC 10231), C. tropicalis (PCM 2681), and A. brasiliensis (ATCC 16404). All the microorganisms were from the Polish Collection of Microorganisms (Wroclaw, Poland). MIC was determined using a microbroth dilution method with Mueller-Hinton (MH) broth for bacteria and Sabouraud Dextrose broth for fungi (Becton Dickinson, Le Pont de Claix, France). An initial inoculum of 10^5 cfu/mL was used for bacteria and 10^3 cfu/mL for fungi. Polypropylene 96-well plates (Kartell, Noviglio, Italy) were incubated for 18 h at 37°C for bacteria and for 48 h at 25°C for the tested fungi. MIC (μg/mL) was taken as the lowest concentration of the lipopeptide, at which the observable growth was inhibited. […] The experiments were performed in triplicate on three different days.

[2] = system: Staphylococcus aureus (ATCC 25923); details: ATCC 25923, TFA salt; for MBC Staphylococcus aureus: MIC wells subcultured on Mueller-Hinton II Agar, 24 h 37°C, triplicate; for MIC Staphylococcus aureus: Mueller-Hinton broth, 10^5 cfu/mL, 18 h 37°C, triplicate on three days
Method: as §1

[3] = system: Enterococcus faecalis (ATCC 29212); details: for MBC Enterococcus fecalis: subculture on Mueller-Hinton II Agar, 24 h 37°C
Method: as §1

[4] = system: Aspergillus brasiliensis (ATCC 16404); details: ATCC 16404, 48 h
Method: as §1

[5] = system: Candida tropicalis (PCM 2681); details: PCM 2681, 48 h
Method: as §1

[6] = system: Pseudomonas aeruginosa (ATCC 9027); details: ATCC 9027, TFA salt, triplicate; for MIC Pseudomonas aeruginosa: Mueller-Hinton broth, 10^5 cfu/mL, 18 h 37°C; for MBC Pseudomonas aeruginosa: subculture on Mueller-Hinton II Agar, 24 h 37°C
Method: as §1

[7] = system: Proteus vulgaris (PCM 2668); details: PCM 2668, TFA salt, triplicate; for MIC Proteus vulgaris: Mueller-Hinton broth, 10^5 cfu/mL, 18 h 37°C; for MBC Proteus vulgaris: subculture on Mueller-Hinton II Agar, 24 h 37°C
Method: as §1

[8] = system: Candida albicans (ATCC 10231)
Method: as §1

[9] = system: Staphylococcus epidermidis (PCM 2118)
Method: as §1

[10] = system: Escherichia coli (ATCC 25922); details: ATCC 25922, TFA salt, triplicate; for MIC Escherichia coli: Mueller-Hinton broth, 10^5 cfu/mL, 18 h 37°C; for MBC Escherichia coli: subculture on Mueller-Hinton II Agar, 24 h 37°C
Method: as §1

[11] = system: Klebsiella pneumoniae (ATCC 700603); details: ATCC 700603, TFA salt, triplicate; for MIC Klebsiella pneumoniae: Mueller-Hinton broth, 10^5 cfu/mL, 18 h 37°C; for MBC Klebsiella pneumoniae: subculture on Mueller-Hinton II Agar, 24 h 37°C
Method: as §1

[12] = ATCC 6633, TFA salt, Mueller-Hinton broth, 10^5 cfu/mL, 18 h 37°C, triplicate
[13] = ATCC 6633, TFA salt, subculture on Mueller-Hinton II Agar, 24 h 37°C, triplicate
[14] = ATCC 29212, TFA salt, Mueller-Hinton broth, 10^5 cfu/mL, 18 h 37°C, triplicate
[15] = ATCC 29212, TFA salt, triplicate
[16] = PCM 2118, TFA salt, Mueller-Hinton broth, 10^5 cfu/mL, 18 h 37°C, triplicate
[17] = PCM 2118, TFA salt, subculture on Mueller-Hinton II Agar, 24 h 37°C, triplicate

| SMILES | MIC Bacillus subtillis [1, 12] [µg/mL] | MBC Bacillus subtillis [1, 13] [µg/mL] | MBC Staphylococcus aureus [2] [µg/mL] | MIC Staphylococcus aureus [2] [µg/mL] | MIC Enterococcus fecalis [3, 14] [µg/mL] | MBC Enterococcus fecalis [3, 15] [µg/mL] | MFC Aspergillus brasiliensis [4] [µg/mL] | MIC Aspergillus brasiliensis [4] [µg/mL] | MFC Candida tropicalis [5] [µg/mL] | MIC Candida tropicalis [5] [µg/mL] | MIC Pseudomonas aeruginosa [6] [µg/mL] | MBC Pseudomonas aeruginosa [6] [µg/mL] | MIC Proteus vulgaris [7] [µg/mL] | MBC Proteus vulgaris [7] [µg/mL] | MFC Candida albicans ([8]; ATCC 10231, 48 h) [µg/mL] | MIC Candida albicans ([8]; ATCC 10231, 48 h) [µg/mL] | MIC Escherichia coli [10] [µg/mL] | MBC Escherichia coli [10] [µg/mL] | MIC Klebsiella pneumoniae [11] [µg/mL] | MBC Klebsiella pneumoniae [11] [µg/mL] | further results |
| --- | --- | --- | --- | --- | --- | --- | --- | --- | --- | --- | --- | --- | --- | --- | --- | --- | --- | --- | --- | --- | --- |
| CCCCCCCC(=O)N[C@@H](CCCCN)C(N)=O [C8-K-NH2] | >1000 | >1000 | >1000 | >1000 | >1000 | >1000 | 1000 (≈ 3.68 mM) | 1000 (≈ 3.68 mM) | 2000 (≈ 7.37 mM) | 1000 (≈ 3.68 mM) | >2000 | >2000 | >2000 | >2000 | 1000 (≈ 3.68 mM) | 1000 (≈ 3.68 mM) | >1000 | >1000 | >1000 | >1000 | MIC Staphylococcus epidermidis [9, 16]: >1000 µg/mL; MBC Staphylococcus epidermidis [9, 17]: >1000 µg/mL |
| CCCCCCCC(=O)N[C@@H](CCCCN)C(=O)NCC(N)=O [C8-KG-NH2] (Octanoyl-Lys-Gly-NH2) | >2000 | >2000 | >2000 | >2000 | >2000 | >2000 | 2000 (≈ 6.09 mM) | 2000 (≈ 6.09 mM) | 2000 (≈ 6.09 mM) | 2000 (≈ 6.09 mM) | >2000 | >2000 | >2000 | >2000 | 2000 (≈ 6.09 mM) | 2000 (≈ 6.09 mM) | >2000 | >2000 | >2000 | >2000 | MIC Staphylococcus epidermidis [9, 16]: >2000 µg/mL; MBC Staphylococcus epidermidis [9, 17]: >2000 µg/mL |
| CCCCCCCCCC(=O)N[C@@H](CCCCN)C(=O)N[C@@H](CCCCN)C(=O)N[C@@H](CCCCN)C(=O)N[C@@H](CCCCN)C(N)=O [C10-KKKK-NH2] (Decanoyl-KKKK-NH2) | – | – | >2000 | >2000 | >2000 | >2000 | 2000 (≈ 2.92 mM) | 2000 (≈ 2.92 mM) | 2000 (≈ 2.92 mM) | 2000 (≈ 2.92 mM) | >2000 | >2000 | >2000 | >2000 | – | – | >2000 | >2000 | >2000 | >2000 | MIC Bacillus subtillis ([1]; ATCC 6633, 18 h): 128 µg/mL (≈ 0.187 mM); MBC Bacillus subtillis ([1]; ATCC 6633, 24 h): 128 µg/mL (≈ 0.187 mM); MIC Candida albicans ([8]; ATCC 10231, TFA salt, Sabouraud Dextrose broth, 10^3 cfu/mL, 48 h 25°C, triplicate): >2000 µg/mL; MFC Candida albicans ([8]; ATCC 10231, TFA salt, subculture on Sabouraud 2% Glucose Agar, 48 h 25°C, triplicate): >2000 µg/mL; MIC Staphylococcus epidermidis ([9]; PCM 2118, 18 h): 64 µg/mL (≈ 0.0936 mM); MBC Staphylococcus epidermidis ([9]; PCM 2118, 24 h): 128 µg/mL (≈ 0.187 mM) |
| CCCCCCCC(=O)N[C@@H](CCCCN)C(=O)NCC(=O)N[C@@H](CCCCN)C(N)=O [C8-KGK-NH2] (Octanoyl-Lys-Gly-Lys-NH2) | – | – | >2000 | >2000 | >2000 | >2000 | 2000 (≈ 4.38 mM) | 2000 (≈ 4.38 mM) | 2000 (≈ 4.38 mM) | 2000 (≈ 4.38 mM) | >2000 | >2000 | >2000 | >2000 | 2000 (≈ 4.38 mM) | 2000 (≈ 4.38 mM) | >2000 | >2000 | >2000 | >2000 | MIC Bacillus subtillis ([1]; ATCC 6633, 18 h): 512 µg/mL (≈ 1.12 mM); MBC Bacillus subtillis ([1]; ATCC 6633, 24 h): 1000 µg/mL (≈ 2.19 mM); MIC Staphylococcus epidermidis ([9]; PCM 2118, 18 h): 256 µg/mL (≈ 0.561 mM); MBC Staphylococcus epidermidis ([9]; PCM 2118, 24 h): 1000 µg/mL (≈ 2.19 mM) |
| CCCCCCCC(=O)N[C@@H](CCCCN)C(=O)NCC(=O)N[C@@H](CCCCN)C(=O)NCC(N)=O [C8-KGKG-NH2] (Octanoyl-KGKG-NH2) | >2000 | >2000 | >2000 | >2000 | >2000 | >2000 | 2000 (≈ 3.89 mM) | 2000 (≈ 3.89 mM) | 2000 (≈ 3.89 mM) | 2000 (≈ 3.89 mM) | >2000 | >2000 | >2000 | >2000 | 2000 (≈ 3.89 mM) | 2000 (≈ 3.89 mM) | >2000 | >2000 | >2000 | >2000 | MIC Staphylococcus epidermidis [9, 16]: >2000 µg/mL; MBC Staphylococcus epidermidis [9, 17]: >2000 µg/mL |
| CCCCCCCC(=O)N[C@@H](CCCCN)C(=O)N[C@@H](CCCCN)C(=O)N[C@@H](CCCCN)C(=O)N[C@@H](CCCCN)C(N)=O [C8-KKKK-NH2] (Octanoyl-KKKK-NH2) | >2000 | >2000 | >2000 | >2000 | – | >2000 | 2000 (≈ 3.05 mM) | 2000 (≈ 3.05 mM) | 2000 (≈ 3.05 mM) | 2000 (≈ 3.05 mM) | >2000 | >2000 | >2000 | >2000 | 2000 (≈ 3.05 mM) | 2000 (≈ 3.05 mM) | >1000 | >1000 | >2000 | >2000 | MIC Enterococcus fecalis ([3]; ATCC 29212, 18 h): 2000 µg/mL (≈ 3.05 mM); MIC Staphylococcus epidermidis [9, 16]: >2000 µg/mL; MBC Staphylococcus epidermidis [9, 17]: >2000 µg/mL |
